Assay [1] concerns the target T1, chondroitinase ABC (ChABC) (Proteus vulgaris, UniProt P59807, L125P). As to the kind of experiment: relative enzyme inhibition assay of ChABC by selected polysaccharide (chondroitin sulfate C substrate, absorbance at 232 nm). The following applies: for Activity (apparent ChABC activity in presence of selected polysaccharide) / % rA (percentage of residual activity): 0.2% chondroitin sulfate C, 0.2% selected polysaccharide, 50 mM pH8 Tris HCl, 37° C., 20 min; for Activity (apparent ChABC activity in presence of selected polysaccharide): reference without polysaccharide 121 U/L; for % rA (percentage of residual activity): relative to assay without polysaccharide; for effect on ChABC enzyme activity (in words): equal amount of substrate (chondroitin sulfate C) and polysaccharide. Type of assay: biochemical. The text has this: There are several existing methods for quantitative study of protein-small molecule interactions such as differential scanning calorimetry, quartz crystal microbalance, fluorescence anisotropy, and the like. However, these methods require complex equipment, are expensive and time consuming, requiring protein immobilization or protein labeling. In order to save time and reduce costs, semi-quantitative assessment methods can be applied, such as enzyme inhibition assays. In the present invention, the relative binding affinity is evaluated by monitoring the inhibition of ChABC by the selected polysaccharide. The stronger the observed inhibitory effect, the higher the affinity between the ChABC and the polysaccharide. A more detailed experimental setup is shown in Example 1. […] Thus, heparin was identified as the most suitable ligand among the selected screened polysaccharides for constructing the affinity column.
In the present invention, it is necessary to identify molecules that have a similar structure to the substrate of ChABC but are inert to enzymatic degradation. In order to test polysaccharides that could actually bind to the active site of ChABC, a relative enzyme inhibition assay was conducted on the selected polysaccharide:
490 μL of the substrate solution was incubated at 37° C. for at least 15 minutes containing 0.2% chondroitin sulfate C, 0.2% selected polysaccharide and 50 mM pH8 Tris HCl buffer. 10 μL of ChABC with activity of about 100 U/L was incubated at 37° C. for at least 3 minutes. After incubation, the two solutions were gently mixed. The mixture was then incubated at 37° C. for 20 minutes to perform enzymatic degradation of chondroitin sulfate. After 20 minutes, the reaction was terminated by inactivating ChABC by heating at 100° C. for 2 minutes. In addition to inactivating the mixture immediately without incubation for 20 minutes, a blank control was performed in the same manner. The absorbance of the heat inactivated solution at 232 nm was then measured and the apparent activity was calculated as shown in Equation 1. The assay in the absence of selected polysaccharide was also conducted in the same manner as a reference.
[formula] • where • Abs=Difference in absorbance • =OD232nm in sample tubes−OD232nm in blank tubes • E=Millimolar extinction coefficient of unsaturated disaccharides from Chondroitin Sulfate C=5.5 • t=Reaction time=20 min • Vt=Total volume of the assay=0.5 mL • Vs=Volume of enzyme used=0.01 mL • DF=Dilution factor • 1000=Convert U/mL to U/L
[formula] • where • % rA=percentage of residual activity • A(poly)=the activity presence of selected polysaccharide • A(ref)=the […] of the assay without the presence of selected polysaccharide

Assay [2] concerns the target T1, chondroitinase ABC (ChABC). Put plainly: incubation of ChABC alone with heparin (change in absorbance, enzymatic degradation). The note with it: ChABC incubated alone with heparin; no change in absorbance. Format: biochemical. An excerpt:
Therefore, immobilization of heparin as a ligand for affinity purification of ChABC is the most suitable choice among the selected polysaccharide derivatives.

Entries after “also recorded” stand apart in the source; their conditions may differ.

T1 sequence (P59807 25-1021 L125P): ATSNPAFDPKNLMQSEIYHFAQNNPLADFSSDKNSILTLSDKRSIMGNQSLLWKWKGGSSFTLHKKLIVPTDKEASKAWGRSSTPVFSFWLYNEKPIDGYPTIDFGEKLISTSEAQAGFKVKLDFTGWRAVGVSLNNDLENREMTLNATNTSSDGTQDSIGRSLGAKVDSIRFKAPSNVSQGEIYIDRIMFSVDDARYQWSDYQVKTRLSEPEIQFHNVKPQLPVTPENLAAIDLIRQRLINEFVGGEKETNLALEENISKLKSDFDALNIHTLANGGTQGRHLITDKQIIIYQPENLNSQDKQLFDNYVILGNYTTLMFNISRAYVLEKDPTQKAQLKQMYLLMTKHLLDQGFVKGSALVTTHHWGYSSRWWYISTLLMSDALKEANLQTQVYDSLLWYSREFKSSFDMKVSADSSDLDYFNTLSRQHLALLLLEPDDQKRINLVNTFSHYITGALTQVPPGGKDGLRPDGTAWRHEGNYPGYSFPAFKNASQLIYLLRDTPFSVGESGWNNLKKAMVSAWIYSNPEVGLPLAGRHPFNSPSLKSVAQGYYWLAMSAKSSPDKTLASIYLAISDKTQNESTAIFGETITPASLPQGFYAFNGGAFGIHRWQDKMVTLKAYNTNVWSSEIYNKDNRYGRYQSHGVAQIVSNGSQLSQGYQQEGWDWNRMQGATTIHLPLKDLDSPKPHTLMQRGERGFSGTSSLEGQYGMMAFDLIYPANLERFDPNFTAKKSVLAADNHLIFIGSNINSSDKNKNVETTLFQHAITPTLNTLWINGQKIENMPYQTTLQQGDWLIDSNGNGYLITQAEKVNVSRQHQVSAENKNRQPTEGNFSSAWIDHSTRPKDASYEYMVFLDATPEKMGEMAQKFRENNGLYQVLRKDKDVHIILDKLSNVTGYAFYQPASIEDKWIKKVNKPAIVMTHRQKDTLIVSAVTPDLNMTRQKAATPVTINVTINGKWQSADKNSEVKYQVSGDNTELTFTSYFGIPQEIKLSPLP

On to polygalacturonic acid, for which, in assay [1], the “Activity (apparent ChABC activity in presence of selected polysaccharide)” value stood at 117 U/L, the “% rA (percentage of residual activity)” value was found to be 97% and the “effect on ChABC enzyme activity (in words)” value (“effect” below) is “no significant effect on enzyme activity”.

Alginic acid: in assay [1], the “Activity (apparent ChABC activity in presence of selected polysaccharide)” value is 119 U/L, the “% rA (percentage of residual activity)” value is recorded as 98% and the “effect” value is “no significant effect on enzyme activity”.

For heparin, in assay [1], the “Activity (apparent ChABC activity in presence of selected polysaccharide)” value was found to be 5.1 U/L, the “% rA (percentage of residual activity)” value is 4.2% and the “effect” value is on record as “almost completely inhibited ChABC activity; also recorded: strongest inhibitory effect on ChABC”. The “susceptibility to enzymatic degradation by ChABC” value in assay [2] was “not subject to the enzymatic degradation activity of ChABC”.
